Data set [1] is described as follows: Hydrolysis kinetics of bleach activator storage solutions by HPLC analysis. It is filed as physicochemical. To be noted: 10% solution, pH 5, room temperature. The text has this:
Because the concentration of hydroxide ion, OH^−, in the cationic bleach activator solution is almost constant by using a buffer (pH 5), the decrease in the concentration of bleach activator can be expressed as equation 1:
[formula] wherein, [C] is the concentration of bleach activator at time t and k is the pseudo first order rate constant of hydrolysis. See M. B. Smith and J. March, March's Advanced Organic Chemistry: Reactions, Mechanisms, and Structure, 5th ed. (New York: Wiley, 2001) 291.
Equation 2 then can be derived from equation 1:
[formula] wherein, C0 and Ct are the concentration of bleach activator at initial time and time t, respectively.
(§1) Aqueous solutions (10% w/w) of cationic bleach activators 3a–3e were prepared using pH 5 buffer solution. A buffer solution of pH 5 was made using sodium acetate (0.1 M)/acetic acid. Each solution was stored in an amber glass bottle at room temperature.
The HPLC (Waters Breeze HPLC system, Waters Corporation, Milford, Mass., United States of America) with a C18 reverse-phase column (Waters Symmetry C18, 5 μm) was used to analyze the hydrolysis behaviors of the cationic bleach activators 3a–3e during storage. On the selected day, a 0.5 mL aliquot was withdrawn from each storage solution of 3a–3e and diluted with 24.5 mL of water. A 10-μL sample of the solution was injected into the HPLC. For the mobile phase, the gradient program using water with 0.005M heptanesulphonic acid as a solvent A and acetonitrile as a solvent B was used (Table 2). The flow rate was 1 mL/min.

Data set [2] can be described thus: Available oxygen (AvO) of bleach activator storage solutions by modified iodometric titration. It is filed as physicochemical. Conditions: 10% w/w aqueous solution, pH 5 buffer, room temperature storage.
Source text: Active or available oxygen (AvO) is a useful parameter for assessing the oxidizing power of hydrogen peroxide or peracids from bleach activators. See American Standard Test Method D 2180–89 (West Conshohocken: ASTM International, 2003); and J. K. Grime, A. D. Clauss and K. A. Leslie, Tenside Surf. Det., 29 (1992) 23. A modified iodometric titration method was used to measure the AvO of the presently disclosed bleach activators. See J. J. Lee, S. Lim, P. Hauser and D. Hinks, Color. Technol., 121 (2005) 37.
as §1
AvO of a bleach activator was measured using a previously described procedure. See J. J. Lee, S. Lim, P. Hauser and D. Hinks, Color. Technol., 121 (2005) 37, the disclosure of which is incorporated herein by reference in its entirety.
On the selected day, the pH value of each storage solution was recorded and a 2 mL aliquot was withdrawn and added to a mixture of deionized water, stabilizer (1 g/L), Na2CO3 (14 g/L) and H2O2 (50% w/w, 0.5 g/L) to make a total volume of 200 mL. Crushed ice (180 g) was added to the sample solution while stirring. Acetic acid (50 mL) and potassium iodide solution (10 mL, 10% w/v) were then added separately. Using 0.025N sodium thiosulfate solution, the sample solution was titrated until it turned colorless. AvO (ppm) of a bleach activator was calculated using Equation 3.
[formula] wherein, Vtotal and VH2O2 are the volume (mL) of Na2S2O3 solution required for the titration of sample and blank respectively.

Data set [3] in a line: Bleaching of cotton fabric with bleach activators, CIE whiteness index measurement. Conditions: stored 10% w/w aqueous solutions, pH 5, bleaching at 70° C. for 50 min. How it is done:
On the same day of the AvO measurement, bleaching was carried out with storage solutions of the bleach activators 3a–3e. Two grams of each solution was added to the bleaching solution, which comprised a wetting agent (1 g/L), stabilizer (1 g/L), NaOH (50% w/w, 3 g/L) and H2O2 (50% w/w, 3 g/L). Cotton fabric (10 g) was bleached in a laboratory IR dyeing machine (Ahiba Nuance, Datacolor International, Lawrenceville, N.J., United States of America) at a liquor ratio of 10:1. The temperature was raised to 70° C. at the rate of 4° C./min. After 50 min of bleaching, the bleaching bath was cooled to room temperature. The bleached fabric was rinsed thoroughly in tap water and air-dried.
The CIE Whiteness Index (WI) value was obtained for the bleached fabric using AATCC Test Method 110–1995. See AATCC Technical Manual, vol 75 (Research Triangle Park: American Association of Textile Chemists and colorists, 2000), the disclosure of which is incorporated herein by reference in its entirety.
The whiteness was measured on a UV calibrated Datacolor Spectraflash SF 600X (Datacolor Corporation, Lawrenceville, N.J., United States of America), under illuminant D65 using the 10° standard observer with specular and UV component included. Each sample was folded twice to give an opaque sample with four plies and whiteness was measured four times at different surfaces. The average value of CIE WI was recorded.

The conditions of data set [4]: compared with conventional peroxide bleaching; cited from earlier work.

“Also recorded” adds a separate entry of the source. Counter-ions that a name gives are not always drawn.

As a reminder, the melting point is the temperature of the solid-liquid transition.

The compound `CC[N+](CC)(CC)Cc1ccc(C(=O)N2CCCC2=O)cc1` (as salt: chloride) [Compound 3a, N-[4-(triethylammoniomethyl)benzoyl] butyrolactam chloride] returned a melting point of 228 to 230 °C.
On to `CC[N+](CC)(CC)Cc1ccc(C(=O)N2CCCCCCC2=O)cc1` (as salt: chloride) [Compound 3d, N-[4-(triethylammoniomethyl)benzoyl] heptalactam chloride], for which the melting point lay in the range of 194 to 196 °C.
Turning to `CC[N+](CC)(CC)Cc1ccc(C(=O)N2CCCCCCCC2=O)cc1` (as salt: chloride) [Compound 3e, N-[4-(triethylammoniomethyl)benzoyl] octalactam chloride], the melting point is 183 to 185 °C.
With `CC[N+](CC)(CC)Cc1ccc(C(=O)N2CCCC2=O)cc1` [Compound 3a, N-[4-(triethylammoniomethyl)benzoyl] butyrolactam chloride], in data set [1], the “hydrolytic stability under typical storage conditions” value (“hydrolytic stability” for short) is “more stable than TBCC” and the “pseudo first order rate constant of hydrolysis (ranking)” value (shortened to “pseudo first order rate constant”) is on record as “smaller than that of TBCC”.
Take `CC[N+](CC)(CC)Cc1ccc(C(=O)N2CCCCC2=O)cc1.[Cl-]` [Compound 3b, N-[4-(triethylammoniomethyl)benzoyl] valerolactam chloride]: the melting point lay within 187 to 189 °C. In addition, the “rate of decrease of AvO over storage time” value (“rate of decrease of AvO” for short) in data set [2] is “decreased the fastest”. For the same compound, in data set [1], the “pseudo first order rate constant” value is on record as “greatest” and the “rate constant of hydrolysis, times greater than that of 3c or TBCC” value is “two times greater”. The “change of CIE-WI of cotton fabric bleached with stored activator solutions over storage time” value in data set [3] is “decreased fastest”.
Turning to `CC[N+](CC)(CC)Cc1ccc(C(=O)N2CCCCCC2=O)cc1.[Cl-]` [Compound 3c, N-[4-(triethylammoniomethyl)benzoyl] caprolactam chloride], the melting point fell in the range of 212 to 214 °C. In addition, the “rate of decrease of AvO” value in data set [2] is reported as “second to that of 3b”. Also, the bleaching performance result in data set [4] is “satisfactory bleaching performance in a shorter time and at lower temperatures than conventional peroxide bleaching”.
As to `CC[N+](CC)(CC)Cc1ccc(C(=O)N2CCCCCCC2=O)cc1` [Compound 3d, N-[4-(triethylammoniomethyl)benzoyl] heptalactam chloride], in data set [1], the “hydrolytic stability” value was “more stable than TBCC” and the “pseudo first order rate constant” value was “smaller than that of TBCC”.
As to `CC[N+](CC)(CC)Cc1ccc(C(=O)N2CCCCCCCC2=O)cc1` [Compound 3e, N-[4-(triethylammoniomethyl)benzoyl] octalactam chloride], the “rate of decrease of AvO” value in data set [2] was “decreased the slowest”. For the same compound, in data set [1], the “hydrolytic stability” value is “more stable than TBCC; also recorded: the most stable compound”; the “pseudo first order rate constant” value was “smaller than that of TBCC”; the “rate constant of hydrolysis, times smaller than that of 3a” value is “about 3 times”; the “rate constant of hydrolysis, times smaller than that of TBCC” value is recorded as approximately 7 times. The “change of CIE-WI of cotton fabric bleached with stored activator solutions over storage time” value in data set [3] was “decreased slowest”.

These data come from patent publication US7179779B1, “Cationic bleach activator with enhanced hydrolytic stability” (North Carolina State University, priority 2006, dated 2007).
